Data reported in article PMC11033320, “Activation of p53 signaling and regression of breast and prostate carcinoma cells by spirooxindole-benzimidazole small molecules” (Frontiers in Pharmacology, 2024).

Assays:
Type in all cases: cell-based
[1] = MTT cytotoxicity to normal human lung fibroblast Wi-38 cell line; settings: Wi-38 normal lung fibroblast cells, mean ± SEM, read-out: percentage of Wi-38 viability
Description: Normal human lung fibroblast Wi-38 cell line was used to detect cytotoxicity of the studied compounds (Table S8). Wi-38 cell line was cultured in DMEM medium-contained 10% fetal bovine serum (FBS), seeded as 5x10^3 cells per well in 96-well cell culture plate and incubated at 37 °C in 5% CO2 incubator. After 24 h for cell attachment, serial concentrations of the synthetic compounds were incubated with Wi-38 cells for 72 h. Cell viability was assayed by MTT method (Mosmann, 1983). Twenty microliters of 5 mg/ml MTT (Sigma, USA) was added to each well and the plate was incubated at 37 °C for 3 h. Then MTT solution was removed, 100 µl DMSO was added and the absorbance of each well was measured with a microplate reader (BMG LabTech, Germany) at 570 nm.

[2] = tested on: RPMI-8226; experiment: NCI anticancer screening, Leukemia RPMI-8226; settings: Homo sapiens; RPMI-8226, 10 μM; read-out: % Growth Inhibition (GI %)
From the text: (§1) The compound has been processed according to standard method NCI-60 Human Tumor Cell Lines Screen for organic compound at development therapeutic program (DTP). Requests for access to this national resource can be submitted online at: […]

[3] = tested on: NCI-H226; experiment: NCI anticancer screening, Non-Small Cell Lung Cancer NCI-H226; settings: Homo sapiens; NCI-H226, 10 μM; read-out: % Growth Inhibition (GI %)
From the text: as §1

[4] = tested on: NCI-H23; experiment: NCI anticancer screening, Non-Small Cell Lung Cancer NCI-H23; settings: Homo sapiens; NCI-H23, 10 μM; read-out: % Growth Inhibition (GI %)
From the text: as §1

[5] = tested on: HCT-116; experiment: NCI anticancer screening, Colon Cancer HCT-116; settings: Homo sapiens; HCT-116, 10 μM; read-out: % Growth Inhibition (GI %)
From the text: as §1

[6] = tested on: HT29; experiment: NCI anticancer screening, Colon Cancer HT29; settings: Homo sapiens, HT-29; HT29, 10 μM; read-out: % Growth Inhibition (GI %)
From the text: as §1

[7] = tested on: SF-539; experiment: NCI anticancer screening, CNS Cancer SF-539; settings: Homo sapiens; SF-539, 10 μM; read-out: % Growth Inhibition (GI %)
From the text: as §1

[8] = tested on: LOX IMVI; experiment: NCI anticancer screening, Melanoma LOX IMVI; settings: Homo sapiens, read-out: % Growth Inhibition (GI %)
From the text: as §1

[9] = tested on: MALME-3M; experiment: NCI anticancer screening, Melanoma MALME-3M; settings: Homo sapiens, read-out: % Growth Inhibition (GI %)
From the text: as §1

[10] = tested on: MDA-MB-435; experiment: NCI anticancer screening, Melanoma MDA-MB-435; settings: Homo sapiens; MDA-MB-435, 10 μM; read-out: % Growth Inhibition (GI %)
From the text: as §1

[11] = tested on: SK-MEL-5; experiment: NCI anticancer screening, Melanoma SK-MEL-5; settings: Homo sapiens; SK-MEL-5, 10 μM; read-out: % Growth Inhibition (GI %)
From the text: as §1

[12] = tested on: UACC-257; experiment: NCI anticancer screening, Melanoma UACC-257; settings: Homo sapiens; UACC-257, 10 μM; read-out: % Growth Inhibition (GI %)
From the text: as §1

[13] = tested on: IGROV1; experiment: NCI anticancer screening, Ovarian Cancer IGROV1; settings: Homo sapiens, IGROV-1; IGROV1, 10 μM; read-out: % Growth Inhibition (GI %)
From the text: as §1

[14] = tested on: OVCAR-4; experiment: NCI anticancer screening, Ovarian Cancer OVCAR-4; settings: Homo sapiens; OVCAR-4, 10 μM; read-out: % Growth Inhibition (GI %)
From the text: as §1

[15] = tested on: OVCAR-8; experiment: NCI anticancer screening, Ovarian Cancer OVCAR-8; settings: Homo sapiens; OVCAR-8, 10 μM; read-out: % Growth Inhibition (GI %)
From the text: as §1

[16] = tested on: NCI/ADR-RES; experiment: NCI anticancer screening, Ovarian Cancer NCI/ADR-RES; settings: Homo sapiens, read-out: % Growth Inhibition (GI %)
From the text: as §1

[17] = tested on: ACHN; experiment: NCI anticancer screening, Renal Cancer ACHN; settings: Homo sapiens, read-out: % Growth Inhibition (GI %)
From the text: as §1

[18] = tested on: RXF 393; experiment: NCI anticancer screening, Renal Cancer RXF 393; settings: Homo sapiens; RXF 393, 10 μM; read-out: % Growth Inhibition (GI %)
From the text: as §1

[19] = tested on: UO-31; experiment: NCI anticancer screening, Renal Cancer UO-31; settings: Homo sapiens; UO-31, 10 μM; read-out: % Growth Inhibition (GI %)
From the text: as §1

[20] = tested on: DU-145; experiment: NCI anticancer screening, DU-145; settings: Homo sapiens; DU-145, 10 μM; read-out: % Growth Inhibition (GI %)
From the text: as §1

[21] = tested on: HS 578T; experiment: NCI anticancer screening, Breast Cancer HS 578T; settings: Homo sapiens, read-out: % Growth Inhibition (GI %)
From the text: as §1

SMILES | viability at 72 h, 5 µM [1] [%] | inhibition at 10 µM [3] [%] | inhibition at 10 µM [4] [%] | inhibition at 10 µM [5] [%] | inhibition at 10 µM [6] [%] | inhibition at 10 µM [7] [%] | inhibition at 10 µM [8] [%] | inhibition at 10 µM [9] [%] | inhibition at 10 µM [10] [%] | inhibition at 10 µM [11] [%] | inhibition at 10 µM [12] [%] | inhibition at 10 µM [13] [%] | inhibition at 10 µM [14] [%] | inhibition at 10 µM [15] [%] | inhibition at 10 µM [16] [%] | inhibition at 10 µM [17] [%] | inhibition at 10 µM [18] [%] | inhibition at 10 µM [19] [%] | inhibition at 10 µM [20] [%] | inhibition at 10 µM [21] [%] | also measured
O=C(c1nc2ccccc2[nH]1)[C@H]1[C@H](c2ccc(C(F)(F)F)cc2)C2CSCN2[C@]12C(=O)Nc1ccccc12 (stereo partly drawn) [Compound 6c, (3S,6′R)-6'-(1H-Benzo [d]imidazole-2-carbonyl)-7'-(4-(trifluoromethyl)phenyl)-3′,6′,7′,7a′-tetrahydro-1′H-spiro [indoline-3.5′-pyrrolo [1,2-c]thiazol]-2-one] | 59.9 ± 2.84 | 79 | 82.3 | 60 | 74.7 | 91.6 | 88.7 | 94.9 | 88.3 | 94.2 | 98.5 | 67.8 | 80.9 | 98.8 | 86 | 89.6 | 90.1 | 55.4 | 97 | 83.9 | inhibition at 10 µM [2]: 72%
O=C(c1nc2ccccc2[nH]1)[C@H]1[C@H](c2ccccc2O)C2CSCN2[C@]12C(=O)Nc1ccccc12 (stereo partly drawn) [Compound 6j, (3S,6′R)-6'-(1H-Benzo [d]imidazole-2-carbonyl)-7'-(2-hydroxyphenyl)-3′,6′,7′,7a′-tetrahydro-1′H-spiro [indoline-3.5′-pyrrolo [1,2-c]thiazol]-2-one] | 40 ± 2.38 | 91.3 | 96.5 | 96.3 | 99.3 | 98.5 | 89.2 | 105 | 92.7 | 94 | 95.6 | 92.1 | 86.5 | 97.7 | 95.9 | 92.2 | 88.2 | 73.9 | 98.7 | 85 | inhibition at 10 µM [2]: 104%
CN(C)c1ccc([C@@H]2C3CSCN3[C@]3(C(=O)Nc4ccccc43)[C@H]2C(=O)c2nc3ccccc3[nH]2)cc1 (stereo partly drawn) [Compound 6k, (3S,6′R)-6'-(1H-Benzo [d]imidazole-2-carbonyl)-7'-(4-(dimethylamino)phenyl)-3′,6′,7′,7a′-tetrahydro-1′H-spiro [indoline-3.5′-pyrrolo [1,2-c]thiazol]-2-one] | 38.6 ± 3.02 | 91.4 | 94.3 | 102 | 99.3 | 99.6 | 94.2 | 94.7 | 96.8 | 98.2 | 90.2 | 89.8 | 91.5 | 105 | 96 | 99 | 99.7 | 73.4 | 104 | 91.7 | –
O=C(c1nc2ccccc2[nH]1)[C@H]1[C@H](c2cccc(F)c2)C2CSCN2[C@]12C(=O)Nc1ccccc12 (stereo partly drawn) [Compound 6m, (3S,6′R)-6'-(1H-Benzo [d]imidazole-2-carbonyl)-7'-(3-fluorophenyl)-3′,6′,7′,7a′-tetrahydro-1′H-spiro [indoline-3.5′-pyrrolo [1,2-c]thiazol]-2-one] | 43.7 ± 2.29 | 92.6 | 90.7 | 84.4 | 86 | 86.7 | 87.5 | 97.5 | 96.5 | 88.8 | 99 | 84.6 | 87.3 | 94.9 | 95.9 | 90.2 | 85.2 | 65.3 | 105 | 78.2 | inhibition at 10 µM [2]: 83.6%
